How the values were obtained:
Format in all cases: in vivo
Nilaparvata lugens = Nilaparvata lugens seedling dip test (paddy seedlings, third instar nymphs); details: dead and moribund third instar nymphs 72 h after release, compared to untreated controls, read-out: percent mortality
Method in brief: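 Paddy seedlings dipped 10 s in compound diluted with 0.01% Triton-X, shade dried, then infested with 15 third-instar nymphs at 25 °C, 75% RH. Mortality (dead plus moribund) scored at 72 h relative to untreated controls.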

Myzus persicae = Myzus persicae leaf dip test (capsicum leaves, third instar nymphs); details: foliar, dead and moribund third instar nymphs 72 h after release, compared to untreated controls, read-out: percent mortality
Procedure: The leaf dip method was used for testing, wherein the required quantity of the compound was weighed and dissolved in a tube containing a solvent solution. The tube was put on a vortex at 2000 rpm for proper mixing and then diluted with a 0.01% Triton-X solution to the desired test concentration. Capsicum leaves were dipped in the compound solution for 10 seconds, shade dried for 20 min and then placed, with the abaxial side of the leaf up, in single cells of a bio-assay tray containing 4 ml of a solidified 1% agar-agar solution. Known numbers of third instar nymphs of Myzus persicae, collected in petri plates, were released into the cell with the treated leaf and the cell was covered with a perforated lid for better aeration. The trays were kept in a plant growth chamber at a temperature of 25° C. and a relative humidity of 70%. Observations on dead, moribund and alive nymphs were recorded 72 h after the release. Percent mortality was calculated by combining dead and moribund nymphs and comparing the result with the one of the untreated controls. The compounds

Bemisia tabaci = Bemisia tabaci leaf dip test (brinjal leaves, whitefly adults); details: foliar, dead and moribund whitefly adults 72 h after release, compared to untreated controls, read-out: percent mortality
Method in brief: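 Brinjal leaves were dipped 10 s in compound diluted in 0.01% Triton-X, dried, and placed on agar, then exposed to freshly emerged whitefly adults at 25° C, 70% RH. Dead plus moribund adults were counted at 72 h, and percent mortality was calculated relative to untreated controls.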

Measured: mortality at 300 ppm

COc1nn(-c2ccc3nn(-c4cccnc4)cc3c2)c(=O)n1Cc1ccc(Cl)cc1 [Compound 354, 4-(4-chlorobenzyl)-5-methoxy-2-(2-(pyridin-3-yl)-2H-indazol-5-yl)-2,4-dihydro-3H-1,2,4-triazol-3-one]
≥ 70%: all assays above

CC(C)S(=O)(=NC1CC1)c1ccc2nn(-c3cccnc3)cc2c1 (stereo not drawn) [Compound 406]
≥ 70%: all assays above

CCS(=O)(=Nc1ccc2nn(-c3cccnc3)cc2c1)C(C)C (stereo not drawn) [Compound 29]
≥ 70%: all assays above

N=S(=O)(CC1CC1)c1ccc2nn(-c3cccnc3)cc2c1 (stereo not drawn) [Compound 386, (cyclopropylmethyl)(imino)(2-(pyridin-3-yl)-2H-indazol-5-yl)-λ^6-sulfanone]
≥ 70%: all assays above

CC(C)S(C)(=O)=Nc1ccc2nn(-c3cccnc3)cc2n1 (stereo not drawn) [Compound 238]
≥ 70%: all assays above

CCS(=N)(=O)c1ccc2nn(-c3cccnc3)cc2c1 (stereo not drawn) [Compound 387, ethyl(imino)(2-(pyridin-3-yl)-2H-indazol-5-yl)-λ^6-sulfanone]
≥ 70%: all assays above

CCN=S(=O)(c1ccc2nn(-c3cncc(F)c3)cc2c1)C(C)C (stereo not drawn) [Compound 397]
≥ 70%: all assays above

CCOc1nn(-c2ccc3nn(-c4cccnc4)cc3c2)c(=O)n1Cc1ccc(F)cc1 [Compound 337, 5-ethoxy-4-(4-fluorobenzyl)-2-(2-(pyridin-3-yl)-2H-indazol-5-yl)-2,4-dihydro-3H-1,2,4-triazol-3-one]
≥ 70%: all assays above

CCS(=O)(=Nc1ccc2nn(-c3cccnc3)cc2n1)C(C)C (stereo not drawn) [Compound 240]
≥ 70%: all assays above

CS(C)(=O)=Nc1ccc2nn(-c3cccnc3)cc2c1 [Compound 1]
≥ 70%: all assays above

CCS(=O)(CC)=Nc1cccc2nn(-c3cccnc3)cc12 [Compound 73]
≥ 70%: all assays above

CCS(=O)(=Nc1ccc2nn(-c3cncnc3)cc2c1)C(C)C (stereo not drawn) [Compound 32]
≥ 70%: all assays above

CC(=O)N=S(=O)(c1ccc2nn(-c3cccnc3)cc2c1)C(C)C (stereo not drawn) [Compound 389]
≥ 70%: all assays above

CCN=S(=O)(c1ccc2nn(-c3cncnc3)cc2c1)C(C)C (stereo not drawn) [Compound 419]
≥ 70%: all assays above

CCN=S(=O)(CC)c1ccc2nn(-c3cncc(F)c3)cc2c1 (stereo not drawn) [Compound 461]
≥ 70%: all assays above

COCCS(C)(=O)=Nc1ccc2nn(-c3cccnc3)cc2n1 (stereo not drawn) [Compound 236]
≥ 70%: all assays above

CCN=S(=O)(CC)c1ccc2nn(-c3cncnc3)cc2c1 (stereo not drawn) [Compound 457]
≥ 70%: all assays above

Reference: patent US20250282754A1, “BICYCLIC COMPOUNDS AND THEIR USE AS PEST CONTROL AGENTS” (Pl Industries Ltd., priority 2022, published 2025)
